The values that follow come from article PMC5354820, “Novel PARP1/2 inhibitor mefuparib hydrochloride elicits potent in vitro and in vivo anticancer activity, characteristic of high tissue distribution” (Oncotarget, 2016).

In brackets after ≈: the same amount, converted by molar mass. Read-outs that look alike come from different tables or passages of the source.

By Vd is commonly meant the apparent volume that relates the amount in the body to the concentration in plasma or blood. As a reminder, the IC50 is the midpoint of a concentration-inhibition curve.

A short description of data set [1]: Metabolites in monkey plasma. The settings on record: monkeys, MPH 10 mg/kg oral; for share of the total amount of all the metabolites and MPH in the plasma: 3-h time point; for average remaining amount, of the corresponding plasma amount at 3 h: 12-h time point. The class given is in vivo. The procedure: SD rats and cynomolgus monkeys were used to do the in vivo pharmacokinetic studies. […] The metabolites in the monkey plasma were analyzed by UPLC-UV/Q-TOF MS. The metabolite data were collected with Analyst® TF V1.6 (AB Sciex Inc., Framingham, MA) and Masslynx V4.1 (Waters Corporation, Milford, MA) and analyzed with PeakView® V1.2 and MetabolitePilot V1.5 (AB Sciex).

For data set [2] the following is noted: cited from earlier work.
For data set [3], the system named is SW620 xenografts. In words: SW620 subcutaneous xenografts in nude mice, alone or with TMZ. The class given is in vivo. The settings on record: SW620, d21, TMZ 2 mg/kg alone.
Description: After 1~2 passages in nude mice, the well-grown xenografts were cut into 1.5-mm^3 fragments that subsequently were transplanted s.c. into the right flank of nude mice. When xenografts reached a volume of 100–200 mm^3 (230-240 mm^3 for V79), the mice were randomized to control and treated groups and received the corresponding treatments as indicated. […] The size of xenografts and the body weight of mice were measured individually twice per week. The xenografts were measured for the maximal width (X) and length (Y) and the volume (V) was calculated as (X^2Y)/2. Relative tumor volume (RTV) was calculated as Vt / V0, where V0 and Vt were the volume before and after treatments, respectively.
On the set-up of data set [4]: method as in PMID 18800822. The settings on record: dogs; cited from earlier work.
For data set [5], the system named is DoTc2-4510 cells. In words: Proliferative inhibition assay, DoTc2-4510. In kind it is cell-based. The settings on record: Homo sapiens, DoTc2-4510, 168 h, read-out: IC50 (mean ± SD).
Description: (§2) Cells cultured in 96-well plates were treated with PARP inhibitors alone or in combination with the indicated anticancer drugs for 3 days (Chinese hamster cells and Ewing sarcoma cells) or 7 days (all the other cells). Then the cells were subjected to the Cell Counting Kit 8 (CCK8) assays (Chinese hamster cells, Ewing sarcoma cells, HCC1937 and MDA-MB-436 cells) or by Sulforhodamine B (SRB) assays (all the other cells) as described previously [18, 19]. […] The averaged IC50 values (mean ± SD) were determined with the Logit method from three independent tests.
Data set [6] deals with V-C8 xenografts. The class given is in vivo. The settings on record: mouse, in vivo. The text has this:
(§1) V-C8, V79, MDA-MB-436 and SW620 xenografts were established by inoculating 5 × 10^6 cells s.c. in nude mice, respectively. After 1~2 passages in nude mice, the well-grown xenografts were cut into 1.5-mm^3 fragments that subsequently were transplanted s.c. into the right flank of nude mice. When xenografts reached a volume of 100–200 mm^3 (230-240 mm^3 for V79), the mice were randomized to control and treated groups and received the corresponding treatments as indicated. […]. The size of xenografts and the body weight of mice were measured individually twice per week. The xenografts were measured for the maximal width (X) and length (Y) and the volume (V) was calculated as (X^2Y)/2. Relative tumor volume (RTV) was calculated as Vt / V0, where V0 and Vt were the volume before and after treatments, respectively. The in vivo anticancer activity was judged by their T/C (%) values. T/C (%) was calculated as (TRTV / CRTV)×100%, where TRTV and CRTV represented the RTV of the treatment and the vehicle group, respectively.

The subject of data set [7] is γH2AX in MDA-MB-436 cells. The data set can be described thus: γH2AX accumulation in cultured MDA-MB-436 cells. In kind it is cell-based, human. The settings on record: MDA-MB-436 (BRCA1−/−), concentration-dependent.
In data set [8] the test system is MDA-MB-436 cells. In words: Proliferative inhibition assay, MDA-MB-436. The class given is cell-based. The settings on record: Homo sapiens, MDA-MB-436, 168 h, read-out: IC50 (mean ± SD).
Description: as §2
For data set [9], the system named is PC-3 cells. The data set can be described thus: Proliferative inhibition assay, PC-3. The class given is cell-based. The settings on record: Homo sapiens, PC-3, 168 h, read-out: IC50 (mean ± SD).
Description: as §2
For data set [10], the system named is HCT-15 cells. In words: Proliferative inhibition assay, HCT-15. The settings on record: Homo sapiens, HCT-15, 168 h, read-out: IC50 (mean ± SD). The class given is cell-based.
Description: as §2
The test system of data set [11] is V79 xenografts. In words: V79 subcutaneous xenografts in nude mice. The settings on record: similar treatments as in V-C8 xenografts. In kind it is in vivo.
Text: as §1

The subject of data set [12] is V79 cells. In words: Proliferative inhibition assay, V79. The class given is cell-based, Chinese hamster. The settings on record: Cricetulus griseus, V79, 72 h, read-out: IC50 (mean ± SD).
Description: as §2
The subject of data set [13] is V-C8+H13 cells. In words: Proliferative inhibition assay, V-C8+H13. The settings on record: Cricetulus griseus, 72 h, read-out: IC50 (mean ± SD). In kind it is cell-based, Chinese hamster.
Description: as §2
The test system of data set [14] is V-C8 cells. In words: Proliferative inhibition assay, V-C8. The settings on record: Cricetulus griseus, V-C8, 72 h, read-out: IC50 (mean ± SD). The class given is cell-based, Chinese hamster.
Description: as §2
On the set-up of data set [15]: method as in PMID 19553641. The settings on record: humans; cited from earlier work.
Details of data set [16]: method as in PMID 18800822. The settings on record: rats; cited from earlier work.
Data set [17] has as its system P-glycoprotein (P-gp). Details: method as in PMID 26374559. The settings on record: cited from earlier work.
For data set [18], the system named is Capan-1 cells. In words: Proliferative inhibition assay, Capan-1. In kind it is cell-based. The settings on record: Homo sapiens, CAPAN-1, 168 h, read-out: IC50 (mean ± SD).
Description: as §2
In data set [19] the test system is UWB1.289 cells. The data set can be described thus: Proliferative inhibition assay, UWB1.289. In kind it is cell-based. The settings on record: Homo sapiens, UWB1289, 168 h, read-out: IC50 (mean ± SD).
Description: as §2
On the set-up of data set [20]: method as in PMID 19553641. The settings on record: cited from earlier work.
For data set [21], the system named is MDA-MB-436 xenografts. The data set can be described thus: MDA-MB-436 subcutaneous xenografts in nude mice. The class given is in vivo. The settings on record: oral; MPH once every other day, AZD2281 30 mg/kg each day.
Text: as §1

The subject of data set [22] is γH2AX in V-C8 cells. The data set can be described thus: γH2AX accumulation in cultured V-C8 cells. The settings on record: V-C8 (BRCA2−/−), concentration-dependent. The class given is cell-based, Chinese hamster.
Data set [23] concerns SK-ES-1 cells. The data set can be described thus: Proliferative inhibition assay, SK-ES-1. The class given is cell-based. The settings on record: Homo sapiens, SK-ES1, 72 h, read-out: IC50 (mean ± SD).
Description: as §2
The subject of data set [24] is U251 cells. The data set can be described thus: Proliferative inhibition assay, U251. The class given is cell-based. The settings on record: Homo sapiens, U-251, 168 h, read-out: IC50 (mean ± SD).
Description: as §2
Data set [25] relates to RD-ES cells. The data set can be described thus: Proliferative inhibition assay, RD-ES. In kind it is cell-based. The settings on record: Homo sapiens, 72 h, read-out: IC50 (mean ± SD).
Description: as §2
Data set [26] concerns HCC1937 cells. The data set can be described thus: Proliferative inhibition assay, HCC1937. The class given is cell-based. The settings on record: Homo sapiens, HCC1937, 168 h, read-out: IC50 (mean ± SD).
Description: as §2

Take `CNC(=O)c1ccc(-c2cc3cc(F)cc(C(N)=O)c3o2)cc1` [M4]: in data set [1], the “share of the total amount of all the metabolites and MPH in the plasma” value (“share” below) was 0.24%.

As to `Cn1ncnc1[C@H]1c2n[nH]c(=O)c3cc(F)cc(c23)N[C@@H]1c1ccc(F)cc1` [talazoparib], in [2], the water solubility was < 1000 µg/mL.

For `NC(=O)c1cccc2cn(-c3ccc([C@@H]4CCCNC4)cc3)nc12` [niraparib], in data set [2], the water solubility was < 1000 µg/mL.

As for `CNCc1ccc(-c2[nH]c3cc(F)cc4c3c2CCNC4=O)cc1` [rucaparib], the water solubility in data set [2] was < 1000 µg/mL.

Turning to `Cn1nnc2c(C(N)=O)ncn2c1=O` [TMZ, temozolomide, reference compound], the “FTV (fractional tumor volume), TMZ alone” value in data set [3] is reported as 0.16.

Consider `CNCc1ccc(-c2cc3cc(F)cc(C(=O)OC4OC(C(=O)O)C(O)C(O)C4O)c3o2)cc1` (centres unmarked) [M3], for which the “share” value in data set [1] worked out at 4.18%.

For `CNCc1ccc(-c2cc3cc(F)cc(C(=O)O)c3o2)cc1` [M1], in [1], the “share” value is recorded as 52.18%; the “average remaining amount, of the corresponding plasma amount at 3 h” value is recorded as 3.13%.

With `CC(=O)NCc1ccc(-c2cc3cc(F)cc(C(=O)O)c3o2)cc1` [M5], the “share” value in data set [1] came to 0.72%.

As for `O=C(c1cc(Cc2n[nH]c(=O)c3ccccc23)ccc1F)N1CCN(C(=O)C2CC2)CC1` [AZD2281, olaparib, reference compound], the volume of distribution (Vd) is 1.3 L/kg in data set [4] and 1.18 L/kg in data set [16]. In addition, the IC50 in data set [5] was determined as 0.89 ± 0.28 µM; in data set [8], 0.02 ± 0.01 µM; in data set [9] it was 4.7 ± 0.69 µM; in data set [10], 25.7 ± 4.7 µM; in data set [12] it was 15.6 ± 1.15 µM; in [13], 13.6 ± 1.85 µM. Besides, the IC50 in [14] is 0.61 ± 0.04 µM; in data set [18], 1.73 ± 0.32 µM; in data set [19], 2.98 ± 1.65 µM; in data set [23] it was 1.7 ± 0.13 µM; in [24] it was 2.5 ± 0.64 µM; in data set [25] it was 0.67 ± 0.14 µM. Moreover, in data set [26], the IC50 was found to be 7.28 ± 1.91 µM. Moreover, in [6], the “death or body-weight loss of the animals” value is reported as “did not cause death or significant body-weight loss”. The “γH2AX levels (DSB accumulation)” value in [7] and in data set [22] was “increased levels of γH2AX” in each case. In addition, in [11], the “effect on growth of V79 xenografts” value is listed as “did not inhibit the growth of V79 xenografts”. The “average Vd” value in data set [15] is listed as 40.3 L. Further, in data set [17], the P-gp substrate entry is on record as “substrate of the drug transporter P-glycoprotein (P-gp)”. The “passage of the blood-brain barrier” value in data set [20] is “hard to go through the blood-brain barrier”. Besides, in data set [21], the “effect on growth of MDA-MB-436 (BRCA1−/−) xenografts” value is “between those of MPH at 40 mg/kg and 80 mg/kg every other day”. Further, the water solubility in [2] is < 1000 µg/mL. In addition, the “solubility in aqueous media” value in data set [2] (independent of pH) is 100 µg/mL (≈ 230 µM).

Regarding `NC(=O)c1cc(F)cc2cc(-c3ccc(C(=O)O)cc3)oc12` [M2], in data set [1], the “share” value is 1.86%; the “average remaining amount, of the corresponding plasma amount at 3 h” value was 23.54%.

On to `CN(Cc1ccc(-c2cc3cc(F)cc(C(N)=O)c3o2)cc1)OC1OC(C(=O)O)C(O)C(O)C1O` (centres unmarked) [M6], for which the “share” value in [1] is given as 1.63%.

With `C[C@]1(c2nc3c(C(N)=O)cccc3[nH]2)CCCN1` [veliparib], in data set [2], the water solubility is < 1000 µg/mL.
